Measured values reported in patent US20240270809A1, “ORAL GLP RECEPTOR AGONISTS” (priority 2020, published 2024).
Where two headings read alike, the source gives them in different places. Positions of bridges follow the written chain, without caps; N, C: chain ends. Non-standard residues stand in square brackets, D forms with d. Residues, ends and D or L forms follow the SMILES beside them. *: point of attachment. Malonyl(2,2-Me2,histaminyl) = CC(C)(C(=O)NCCc1cnc[nH]1)C(=O)*; Ala(1H-tetrazol-5-yl) = N[C@@H](Cc1nnn[nH]1)C(=O)O; αMePhe(2-F) = C[C@](N)(Cc1ccccc1F)C(=O)O; αMeL = CC(C)C[C@](C)(N)C(=O)O; Nle = CCCC[C@H](N)C(=O)O; Aib = CC(C)(N)C(=O)O

What was measured:
Type in all cases: cell-based
mouse GLP2 receptor = target: T1, mouse GLP2 receptor (Mus musculus, UniProt Q5IXF8); experiment: cAMP accumulation assay, functional agonism of mouse GLP2 receptor
T1 construct: expressed in transfected cells; host or cells: HEK cells, transient transfection with GeneJuice
T1 sequence (Q5IXF8 1-512): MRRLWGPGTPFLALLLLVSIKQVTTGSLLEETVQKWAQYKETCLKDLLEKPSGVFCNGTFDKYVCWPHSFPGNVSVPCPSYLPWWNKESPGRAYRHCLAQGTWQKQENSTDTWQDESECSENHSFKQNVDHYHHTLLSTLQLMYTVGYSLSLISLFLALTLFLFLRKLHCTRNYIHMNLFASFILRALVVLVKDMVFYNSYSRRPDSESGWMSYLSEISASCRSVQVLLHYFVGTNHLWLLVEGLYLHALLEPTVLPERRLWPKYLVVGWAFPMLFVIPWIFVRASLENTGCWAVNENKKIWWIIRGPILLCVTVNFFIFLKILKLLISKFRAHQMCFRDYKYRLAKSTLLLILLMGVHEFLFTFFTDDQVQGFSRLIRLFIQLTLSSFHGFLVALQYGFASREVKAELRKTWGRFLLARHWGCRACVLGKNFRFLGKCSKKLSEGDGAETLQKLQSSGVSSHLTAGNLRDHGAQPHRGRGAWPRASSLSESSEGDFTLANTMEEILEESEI
Procedure: CAMP production upon agonist stimulation of mouse GLP2 or GLP1 receptors was assessed utilizing HiRange cAMP kit (Cisbio). In brief, HEK cells were transiently transfected for 24 hours with cDNA using GeneJuice Transfection reagent (EMD Millipore) and frozen at −80° C. for later use in the assay. On the day, various concentrations of compounds were dispensed using ECHO-555 (LabCyte) to a total volume of 100 nl into a low volume 384-well Proxi plate (Perkin Elmer) followed by addition of 10 μl of cell suspension delivering 8000 cells per well. Cells were prepared in the assay buffer (HBSS (Lonza) supplemented with 0.5 mM IBMX (Tocris)). After 45 min incubation at 37° C., the reaction was stopped by addition of the HTRF detection reagents in the lysis buffer provided in the kit. Following 1-hour incubation at RT, plates were read on Pherastar FS (BMG Labtech, Inc.) using standard HTRF settings. Dotmatics Studies software was used for calculation of pEC50 values by fitting data to a four-parameter concentration response curve.

human GLP1 receptor = target: T2, human GLP1 receptor (Homo sapiens, UniProt P43220); experiment: cAMP accumulation assay, functional agonism of human GLP1 receptor; conditions: HEK cells infected with human GLP1 receptor BacMam virus, HTRF cAMP; for Emax: HEK293, read-out: Human GLP-1R agonist cAMP Emax; for EC50: read-out: Human GLP-1R agonist cAMP pEC50 (converted)
T2 construct: expressed in transfected cells; host or cells: HEK cells, BacMam virus transduction
T2 sequence (P43220 24-463): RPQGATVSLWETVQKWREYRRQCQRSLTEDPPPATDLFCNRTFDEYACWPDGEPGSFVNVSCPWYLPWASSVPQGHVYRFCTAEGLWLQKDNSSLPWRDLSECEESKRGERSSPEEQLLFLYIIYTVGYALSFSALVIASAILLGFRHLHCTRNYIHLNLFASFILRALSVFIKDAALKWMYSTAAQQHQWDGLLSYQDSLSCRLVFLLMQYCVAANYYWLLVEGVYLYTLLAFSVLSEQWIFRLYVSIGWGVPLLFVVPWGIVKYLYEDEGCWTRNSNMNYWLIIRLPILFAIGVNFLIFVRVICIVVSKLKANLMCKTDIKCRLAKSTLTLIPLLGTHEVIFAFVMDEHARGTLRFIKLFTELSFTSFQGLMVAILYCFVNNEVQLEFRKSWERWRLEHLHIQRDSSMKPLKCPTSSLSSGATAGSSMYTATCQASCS
Summary of the method: (§1)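 Agonist-driven cAMP production was quantified by homogeneous time-resolved fluorescence. Receptor expression in HEK cells came from a 24-hour BacMam infection, and cells were frozen ahead of the assay. Incubation lasted 45 min at 37° C in HBSS supplemented with 0.5 mM IBMX.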

human GLP2 receptor = target: T3, human GLP2 receptor (Homo sapiens, UniProt O95838); experiment: cAMP accumulation assay, functional agonism of human GLP2 receptor; conditions: HEK cells infected with human GLP2 receptor BacMam virus, HTRF cAMP; for Emax: HEK293, read-out: Human GLP-2R agonist cAMP Emax; for EC50: read-out: Human GLP-2R agonist cAMP pEC50 (converted)
T3 construct: expressed in transfected cells; host or cells: HEK cells, BacMam virus transduction
T3 sequence (O95838 1-553): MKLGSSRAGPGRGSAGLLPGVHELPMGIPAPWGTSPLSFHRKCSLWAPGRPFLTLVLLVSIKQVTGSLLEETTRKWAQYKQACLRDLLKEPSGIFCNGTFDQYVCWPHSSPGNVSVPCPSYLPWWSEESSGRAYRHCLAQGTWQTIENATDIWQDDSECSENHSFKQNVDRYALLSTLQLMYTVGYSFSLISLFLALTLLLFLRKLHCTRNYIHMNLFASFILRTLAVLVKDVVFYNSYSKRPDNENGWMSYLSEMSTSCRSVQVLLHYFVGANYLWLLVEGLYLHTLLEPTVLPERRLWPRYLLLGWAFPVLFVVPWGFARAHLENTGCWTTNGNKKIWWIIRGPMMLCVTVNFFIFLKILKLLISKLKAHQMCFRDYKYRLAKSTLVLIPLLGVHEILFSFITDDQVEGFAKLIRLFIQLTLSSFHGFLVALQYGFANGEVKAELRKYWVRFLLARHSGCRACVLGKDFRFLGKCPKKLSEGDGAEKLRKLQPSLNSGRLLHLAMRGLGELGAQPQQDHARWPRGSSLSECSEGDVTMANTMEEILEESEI
Summary of the method: as §1

[1] = HEK293, HEK cells transiently transfected with mouse GLP2 receptor, HTRF cAMP, read-out: Mouse GLP-2R agonist cAMP Emax
[2] = HEK cells transiently transfected with mouse GLP2 receptor, HTRF cAMP, read-out: Mouse GLP-2R agonist cAMP pEC50 (converted)

Row | Emax (human GLP1 receptor) [%] | EC50 (human GLP1 receptor) [pM] | Emax (human GLP2 receptor) [%] | EC50 (human GLP2 receptor) [pM] | Emax (mouse GLP2 receptor; [1]) [%] | EC50 (mouse GLP2 receptor; [2]) [pM] | Structure (SMILES) | EC50 (mouse GLP2 receptor) [pM] | Emax (mouse GLP2 receptor; HEK293, read-out: Mouse GLP-2R agonist cAMP Emax) [%]
1 | 99.5 | 5.01 | 102 | 20 | 103 | 631 | CCCC[C@H](NC(=O)[C@H](CCC(=O)O)NC(=O)[C@H](CC(=O)O)NC(=O)[C@H](CO)NC(=O)[C@](C)(Cc1ccccc1F)NC(=O)[C@H](CO)NC(=O)CNC(=O)[C@H](Cc1nn[nH]n1)NC(=O)C(C)(C)C(=O)NCCc1c[nH]cn1)C(=O)N[C@H](Cc1ccccc1)C(=O)N[C@H]1CCC(=O)NCCCC[C@@H](C(=O)N[C@H]2CCCCNC(=O)C[C@@H](C(=O)N[C@@H](Cc3ccccc3)C(=O)N[C@H](C(=O)N[C@H]3CCC(=O)NCCCC[C@@H](C(=O)N[C@H]4CCCCNC(=O)CC[C@@H](C(N)=O)NC(=O)[C@H]([C@@H](C)O)NC(=O)[C@H]([C@@H](C)CC)NC(=O)[C@H](CCCCN)NC4=O)NC(=O)[C@H]([C@@H](C)CC)NC(=O)[C@H](CC(C)C)NC(=O)[C@H](Cc4c[nH]c5ccccc45)NC3=O)[C@@H](C)CC)NC(=O)[C@H](CCCCN)NC(=O)[C@H](C)NC(=O)[C@H](C)NC2=O)NC(=O)[C@H](CC(=O)O)NC(=O)[C@H](CC(C)C)NC(=O)[C@H]([C@@H](C)CC)NC1=O [Example 53] ({Malonyl(2,2-Me2,histaminyl)}-[Ala(1H-tetrazol-5-yl)]GS[αMePhe(2-F)]SDE[Nle][dF]EILDKKAAKDFIEWLIKKKITE-NH2; lactam 10-14, 15-19, 22-26, 27-31; C-terminus assumed) | – | –
2 | 97.3 | 63.1 | 103 | 12.6 | 98.6 | 631 | CCCC[C@@H]1NC(=O)[C@H](CCC(=O)O)NC(=O)[C@@H](NC(=O)[C@H](CO)NC(=O)[C@](C)(Cc2ccccc2F)NC(=O)[C@H](CO)NC(=O)[C@@H](C)NC(=O)[C@H](Cc2nn[nH]n2)NC(=O)C(C)(C)C(=O)NCCc2c[nH]cn2)CCCCNC(=O)C[C@@H](C(=O)N[C@@](C)(CC(C)C)C(=O)N[C@@H](CC(C)C)C(=O)N[C@@H](CC(=O)O)C(=O)N[C@H]2CCC(=O)NCCCC[C@@H](C(=O)N[C@@H](CC(=O)O)C(=O)N[C@@H](Cc3ccccc3)C(=O)N[C@H](C(=O)N[C@H]3CCCCNC(=O)C[C@@H](C(=O)N[C@H]4CCC(=O)NCCCC[C@@H](C(N)=O)NC(=O)[C@H]([C@@H](C)O)NC(=O)[C@H]([C@@H](C)CC)NC(=O)[C@H](CCCCN)NC4=O)NC(=O)[C@H]([C@@H](C)CC)NC(=O)[C@H](CC(C)C)NC(=O)[C@H](Cc4c[nH]c5ccccc45)NC3=O)[C@@H](C)CC)NC(=O)[C@H](C)NC(=O)[C@H](C)NC(=O)[C@H](CCCCN)NC2=O)NC(=O)[C@@H](Cc2ccccc2)NC1=O [Example 56] ({Malonyl(2,2-Me2,histaminyl)}-[Ala(1H-tetrazol-5-yl)][dA]S[αMePhe(2-F)]SKE[Nle][dF]D[αMeL]LDEKAAKDFIKWLIDEKITK-NH2; lactam 6-10, 14-18, 22-26, 27-31 (inferred); C-terminus assumed) | – | –
3 | 98 | 25.1 | 104 | 39.8 | 99.7 | 2000 | CCCC[C@H](NC(=O)[C@H](CCC(=O)O)NC(=O)[C@@H]1CC(=O)NCCCC[C@H](NC(=O)[C@H](CC(=O)O)NC(=O)C(C)(C)NC(=O)[C@@H](N)Cc2c[nH]cn2)C(=O)N[C@@H](CO)C(=O)N[C@@](C)(Cc2ccccc2F)C(=O)N[C@@H](CO)C(=O)N1)C(=O)N[C@H](Cc1ccccc1)C(=O)N[C@H](C(=O)N[C@@](C)(CC(C)C)C(=O)N[C@@H](CC(C)C)C(=O)N[C@@H](CC(=O)O)C(=O)N[C@H]1CCC(=O)NCCCC[C@@H](C(=O)N[C@@H](CC(=O)O)C(=O)N[C@@H](Cc2ccccc2)C(=O)N[C@H](C(=O)N[C@H]2CCC(=O)NCCCC[C@@H](C(=O)N[C@H]3CCC(=O)NCCCC[C@@H](C(N)=O)NC(=O)[C@H]([C@@H](C)O)NC(=O)[C@H]([C@@H](C)CC)NC(=O)[C@H](CCCCN)NC3=O)NC(=O)[C@H]([C@@H](C)CC)NC(=O)[C@H](CC(C)C)NC(=O)[C@H](Cc3c[nH]c4ccccc34)NC2=O)[C@@H](C)CC)NC(=O)[C@H](C)NC(=O)[C@H](C)NC(=O)[C@H](CCCCN)NC1=O)[C@@H](C)O [Example 64] (H-H[Aib]DKS[αMePhe(2-F)]SDE[Nle][dF]T[αMeL]LDEKAAKDFIEWLIKEKITK-NH2; lactam 4-8, 16-20, 24-28, 29-33; N-terminus and C-terminus assumed) | – | –
4 | 97.9 | 39.8 | 102 | 39.8 | 86.3 | 6310 | CCCC[C@H](NC(=O)[C@H](CCC(=O)O)NC(=O)[C@@H]1CC(=O)NCCCC[C@H](NC(=O)[C@H](CC(=O)O)NC(=O)C(C)(C)C(=O)NCCc2c[nH]cn2)C(=O)N[C@@H](CO)C(=O)N[C@@](C)(Cc2ccccc2F)C(=O)N[C@@H](CO)C(=O)N1)C(=O)N[C@H](Cc1ccccc1)C(=O)N[C@H](C(=O)N[C@@](C)(CC(C)C)C(=O)N[C@@H](CC(C)C)C(=O)N[C@@H](CC(=O)O)C(=O)N[C@H]1CCC(=O)NCCCC[C@@H](C(=O)N[C@@H](CC(=O)O)C(=O)N[C@@H](Cc2ccccc2)C(=O)N[C@H](C(=O)N[C@H]2CCC(=O)NCCCC[C@@H](C(=O)N[C@H]3CCC(=O)NCCCC[C@@H](C(N)=O)NC(=O)[C@H]([C@@H](C)O)NC(=O)[C@H]([C@@H](C)CC)NC(=O)[C@H](CCCCN)NC3=O)NC(=O)[C@H]([C@@H](C)CC)NC(=O)[C@H](CC(C)C)NC(=O)[C@H](Cc3c[nH]c4ccccc34)NC2=O)[C@@H](C)CC)NC(=O)[C@H](C)NC(=O)[C@H](C)NC(=O)[C@H](CCCCN)NC1=O)[C@@H](C)O [Example 65] ({Malonyl(2,2-Me2,histaminyl)}-DKS[αMePhe(2-F)]SDE[Nle][dF]T[αMeL]LDEKAAKDFIEWLIKEKITK-NH2; lactam 2-6, 14-18, 22-26, 27-31 (inferred); C-terminus assumed) | – | –

Row | Structure (SMILES) | Emax (human GLP1 receptor) [%] | EC50 (human GLP1 receptor) [pM] | Emax (human GLP2 receptor) [%] | EC50 (human GLP2 receptor) [pM] | Emax (mouse GLP2 receptor; [1]) [%] | EC50 (mouse GLP2 receptor; [2]) [pM] | EC50 (mouse GLP2 receptor) [pM] | Emax (mouse GLP2 receptor; HEK293, read-out: Mouse GLP-2R agonist cAMP Emax) [%]
5 | CCCC[C@H](NC(=O)[C@H](CCC(=O)O)NC(=O)[C@H](CC(=O)O)NC(=O)[C@H](CO)NC(=O)[C@](C)(Cc1ccccc1F)NC(=O)[C@H](CO)NC(=O)CNC(=O)[C@H](Cc1nn[nH]n1)NC(=O)C(C)(C)C(=O)NCCc1c[nH]cn1)C(=O)N[C@H](Cc1ccccc1)C(=O)N[C@H]1CCC(=O)NCCCC[C@@H](C(=O)N[C@H]2CCC(=O)NCCCC[C@@H](C(=O)N[C@@H](CC(=O)O)C(=O)N[C@@H](Cc3ccccc3)C(=O)N[C@H](C(=O)N[C@H]3CCC(=O)NCCCC[C@@H](C(=O)N[C@H]4CCCCNC(=O)CC[C@@H](C(N)=O)NC(=O)[C@H]([C@@H](C)O)NC(=O)[C@H]([C@@H](C)CC)NC(=O)[C@H](CCCCN)NC4=O)NC(=O)[C@H]([C@@H](C)CC)NC(=O)[C@H](CC(C)C)NC(=O)[C@H](Cc4c[nH]c5ccccc45)NC3=O)[C@@H](C)CC)NC(=O)[C@H](C)NC(=O)[C@H](C)NC2=O)NC(=O)[C@H](CC(=O)O)NC(=O)[C@H](CC(C)C)NC(=O)[C@H]([C@@H](C)CC)NC1=O [Example 52] | 98.8 | 2.51 | 102 | 10 | – | – | 200 | 103
